Assay [1] has as its target T1, Caspase-1 (Homo sapiens) (UniProt P29466).
T1 sequence (whole entry): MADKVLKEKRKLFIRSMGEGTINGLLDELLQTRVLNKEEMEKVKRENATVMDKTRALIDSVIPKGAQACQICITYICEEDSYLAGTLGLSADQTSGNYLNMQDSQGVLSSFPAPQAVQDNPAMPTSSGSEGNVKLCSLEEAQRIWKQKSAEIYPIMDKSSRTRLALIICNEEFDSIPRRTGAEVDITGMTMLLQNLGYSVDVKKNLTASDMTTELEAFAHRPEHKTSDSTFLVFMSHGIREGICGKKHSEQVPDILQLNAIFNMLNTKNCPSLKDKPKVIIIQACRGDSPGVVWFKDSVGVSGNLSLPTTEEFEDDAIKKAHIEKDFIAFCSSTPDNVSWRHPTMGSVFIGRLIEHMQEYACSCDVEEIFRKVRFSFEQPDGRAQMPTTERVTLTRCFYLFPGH
Nature of the assay: Inhibition of caspase 1.

Assay [2] has as its target Stromelysin-1 (Homo sapiens) (UniProt P08254). Nature of the assay: Inhibition of MMP3.

Molecules are shown by their SMILES. In brackets after ≈: the same amount, converted by molar mass.

Stromelysin-1 (Homo sapiens), sequence (P08254 100-477 limits assumed): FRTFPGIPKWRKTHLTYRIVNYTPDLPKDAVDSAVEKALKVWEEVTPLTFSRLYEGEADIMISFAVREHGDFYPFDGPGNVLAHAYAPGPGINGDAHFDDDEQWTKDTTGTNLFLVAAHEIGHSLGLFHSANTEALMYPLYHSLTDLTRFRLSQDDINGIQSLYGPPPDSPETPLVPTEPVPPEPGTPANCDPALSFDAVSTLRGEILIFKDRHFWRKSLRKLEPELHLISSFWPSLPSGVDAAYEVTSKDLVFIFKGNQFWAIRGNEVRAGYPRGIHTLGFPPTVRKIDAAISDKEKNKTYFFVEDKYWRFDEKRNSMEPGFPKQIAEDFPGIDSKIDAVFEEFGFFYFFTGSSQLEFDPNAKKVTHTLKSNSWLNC

As for `C=C(CCC=C(C)C)[C@H]1C[C@@H](O)[C@](C)(O)[C@@H](O)C1=O`, the figures for the MIC50 in assay [1] and in assay [2] were 30 µM (≈ 8.05 µg/mL) and 0.3 µM (≈ 0.0805 µg/mL), respectively.

`CC(C)=CCC/C(C)=C1\C[C@@H](O)[C@](C)(O)[C@@H](O)C1=O`: the MIC50 in assay [1] worked out at 30 µM (≈ 8.05 µg/mL); in assay [2], 0.3 µM (≈ 0.0805 µg/mL).

As to `C=C(CCC=C(C)C)C1=C[C@@H](O)[C@](C)(O)[C@@H](O)C1=O`, the MIC50 was 30 µM (≈ 7.99 µg/mL) in assay [1] and 0.3 µM (≈ 0.0799 µg/mL) in assay [2].
